# According to publication PMC7096398, “Oxytocin Receptors Regulate Social Preference in Zebrafish” (Scientific Reports, 2020):
# Several values for one entry are separate records, joined by “and”; a condition that tells them apart may be missing. Identical values can stand only once. Like-named read-outs stand apart in the source and are kept apart here. Positions of bridges follow the written chain, without caps; N, C: chain ends. Residues, ends and D or L forms follow the SMILES beside them.
# Columns and labels:
# [1] = target: T1, Oxtr (Danio rerio, UniProt E4W699); experiment: Inositol phosphate accumulation assay, agonist potency at Oxtr; format: cell-based, zebrafish
# T1 construct: host or cells: HEK293
# T1 sequence (E4W699 1-388): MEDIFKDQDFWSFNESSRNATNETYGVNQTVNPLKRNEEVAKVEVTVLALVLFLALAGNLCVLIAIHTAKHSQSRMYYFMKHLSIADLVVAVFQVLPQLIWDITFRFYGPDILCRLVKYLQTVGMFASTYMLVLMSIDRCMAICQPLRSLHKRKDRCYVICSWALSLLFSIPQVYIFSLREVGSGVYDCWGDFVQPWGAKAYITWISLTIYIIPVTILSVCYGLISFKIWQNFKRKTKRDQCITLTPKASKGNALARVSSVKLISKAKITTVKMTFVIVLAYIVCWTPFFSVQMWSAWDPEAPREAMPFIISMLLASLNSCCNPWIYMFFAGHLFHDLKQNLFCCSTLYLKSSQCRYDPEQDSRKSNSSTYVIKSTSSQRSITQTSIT
# Procedure: (§1) The receptor constructs were ordered from GeneScript and subcloned into a pcDNA3.1/CT-GFP-TOPO vector. The coding sequences of the GenBank entries NM_001199370.1 (oxtr), NM_001199369.1 (oxtrl), NM_001301114.1 (avpr1aa), and NM_001297676.1 (avpr1ab) were used for synthesis. The stop codons were removed, and an additional […] was added to facilitate hybrid protein expression with GFP in frame from the vector. The GCCACC Kozak sequence was inserted before the start codons. After transformation of the plasmid constructs into TOP10 competent cells (Thermo Fisher Scientific), the Maxiprep (Thermo Fisher Scientific) method was used to amplify the plasmids for transfection.
# (§2) The Inositol phosphate accumulation assay was performed according to previous descriptions to measure the potency of different ligands for zebrafish different oxytocin related receptors. Each receptor construct was transfected into HEK293 cells using Lipofectamine 2000 (Thermo Fisher Scientific). Myo2-^3H-inositol (PerkinElmer) at 3 μCi/mL was added the day after transfection. On day three, cells were re-suspended in assay buffer (10 mM LiCl, 20 mM HEPES, 137 mM NaCl, 5 mM KCl, 0.44 mM KH2PO4, 4.2 mM NaHCO3, 1.2 mM MgCl2, 1 mM CaCl2, and 10 mM glucose), after incubation in a PBS/EDTA mixture (0.2 g/L). After 10 minutes of pre-incubation at 37 °C, the cells were stimulated with serial dilution of peptides for 25 minutes at 37 °C. […] Cells were lysed for 60 minutes at 4 °C with an equal volume of 0.8 M perchloric acid, and then neutralised with KOH/KHCO3 solution. Ion exchange chromatography on AG 1-X8 resin (Bio-Rad) was used to collect the generated ^3H-inositol phosphates. The resin was washed with buffer containing 5 mM Na2B4O7 and 60 mM NH4-formate and eluted with buffer containing 1 M NH4-formate and 0.1 M formic acid. Samples were mixed with OptiPhase HiSafe (PerkinElmer Waltham, MA, USA) and ^3H radioactivity was measured with a Tri-Carb 2910TR liquid scintillation counter (PerkinElmer Waltham, MA, USA). The assays were performed in duplicate for each concentration and repeated at least 3 times.
# [2] = target: T2, Oxtrl (Danio rerio, UniProt E4W698); experiment: Inositol phosphate accumulation assay, agonist potency at Oxtrl; format: cell-based, zebrafish
# T2 construct: host or cells: HEK293
# T2 sequence (E4W698 1-382): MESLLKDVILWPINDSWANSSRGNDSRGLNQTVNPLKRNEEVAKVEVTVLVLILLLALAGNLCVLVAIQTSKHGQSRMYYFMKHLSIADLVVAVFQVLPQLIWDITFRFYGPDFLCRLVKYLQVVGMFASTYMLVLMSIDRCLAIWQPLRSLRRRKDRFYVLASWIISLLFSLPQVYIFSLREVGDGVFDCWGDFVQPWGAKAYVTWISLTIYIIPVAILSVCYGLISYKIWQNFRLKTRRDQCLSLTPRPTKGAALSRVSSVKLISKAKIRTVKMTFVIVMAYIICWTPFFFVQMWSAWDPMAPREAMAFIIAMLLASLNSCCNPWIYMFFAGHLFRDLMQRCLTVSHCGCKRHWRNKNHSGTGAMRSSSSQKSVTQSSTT
# Procedure: as §1, §2
# [3] = target: T3, Avpr1ab (Danio rerio, UniProt A0A8M1P6E3); experiment: Inositol phosphate accumulation assay, agonist potency at Avpr1ab; format: cell-based, zebrafish
# T3 sequence (A0A8M1P6E3 1-410): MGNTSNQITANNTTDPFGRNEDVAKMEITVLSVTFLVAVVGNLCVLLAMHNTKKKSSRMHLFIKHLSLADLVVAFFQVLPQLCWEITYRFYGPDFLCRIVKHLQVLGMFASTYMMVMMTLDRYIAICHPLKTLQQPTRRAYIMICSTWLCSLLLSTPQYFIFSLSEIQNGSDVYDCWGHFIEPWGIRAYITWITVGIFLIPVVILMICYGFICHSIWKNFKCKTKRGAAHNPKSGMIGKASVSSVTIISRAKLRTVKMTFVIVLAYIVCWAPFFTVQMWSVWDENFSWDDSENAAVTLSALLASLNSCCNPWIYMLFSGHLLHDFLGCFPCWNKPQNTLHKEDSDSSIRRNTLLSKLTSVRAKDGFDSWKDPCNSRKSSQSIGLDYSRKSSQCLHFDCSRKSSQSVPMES
# Procedure: as §1, §2
# [4] = target: T4, Avpr1aa (Danio rerio, UniProt A0A8M1P1H3); experiment: Inositol phosphate accumulation assay, agonist potency at Avpr1aa; format: cell-based, zebrafish
# T4 sequence (A0A8M1P1H3 1-379): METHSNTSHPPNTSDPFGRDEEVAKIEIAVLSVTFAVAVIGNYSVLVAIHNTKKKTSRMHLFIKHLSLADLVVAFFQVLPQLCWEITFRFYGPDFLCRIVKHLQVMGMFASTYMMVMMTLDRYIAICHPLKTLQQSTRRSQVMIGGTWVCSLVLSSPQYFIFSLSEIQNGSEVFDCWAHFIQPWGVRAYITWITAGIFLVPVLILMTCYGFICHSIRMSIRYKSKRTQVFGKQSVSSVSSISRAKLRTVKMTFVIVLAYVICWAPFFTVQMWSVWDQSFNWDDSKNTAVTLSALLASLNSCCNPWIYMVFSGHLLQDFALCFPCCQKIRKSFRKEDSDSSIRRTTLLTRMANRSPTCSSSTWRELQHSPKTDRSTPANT
# Procedure: as §1, §2
# [5] = tested on: zebrafish; design: method as in 4 sources, ref 42 = [42]; PMID 21956239; doi:10.1007/s00213-011-2482-2; 42. Braida D Neurohypophyseal hormones manipulation modulate social and anxiety-related behavior in zebrafish Psychopharmacology (Berl) 2012 220 319 330 10.1007/s00213-011-2482-2 21956239 ||| ref 44 = [44]; PMID 27247142; doi:10.1016/j.bbr.2016.05.059; 44. Zimmermann FF Gaspary KV Siebel AM Bonan CD Oxytocin reversed MK-801-induced social interaction and aggression deficits in zebrafish Behav Brain Res 2016 311 368 374 10.1016/j.bbr.2016.05.059 2724 ||| ref 51 = [51]; doi:10.1163/1568539x-00003261; 51. Lindeyer CM Langen EMA Swaney WT Reader SM Nonapeptide influences on social behaviour: effects of vasotocin and isotocin on shoaling and interaction in zebrafish Behaviour 2015 152 897 915 10.1163 ||| ref 27 = [27]; PMID 26347614; doi:10.3389/fncir.2015.00039; 27. Dreosti E Lopes G Kampff AR Wilson SW Development of social behavior in young zebrafish Front Neural Circuits 2015 9 39 10.3389/fncir.2015.00039 26347614 PMC4539524; conditions: cited from earlier work
# Text: Thus far, dopamine[56] and serotonin[57] in the mesolimbic system and excitation-inhibition balance[58] seem to play a prominent role in social investigation in rodents. Similarly, levels of dopamine and serotonin are modulated in socially interacting fish[59]–[61] and social preference behaviour decreases after treatment with a dopamine D1 receptor antagonist. […] In rodents, release of ... || (+ 1 further places)
# [6] = read-out: Potency (EC50) at Oxtrl
# [7] = HEK293 cells transfected with zebrafish Avpr1ab, 3H-inositol phosphate accumulation, 10 min pre-incubation, 25 min stimulation, 37 °C, duplicates, table: mean ± SEM, n = 3, read-out: Potency (EC50) at Avpr1ab
# [8] = HEK293 cells transfected with zebrafish Avpr1aa, 3H-inositol phosphate accumulation, 10 min pre-incubation, 25 min stimulation, 37 °C, duplicates, table: mean ± SEM, n = 3 (zOT n = 4), read-out: Potency (EC50) at Avpr1aa
Compound,EC50 [1],"EC50 [2, 6]","EC50 [3, 7]","EC50 [4, 8]",further results
CC[C@H](C)[C@@H]1NC(=O)[C@H](Cc2ccc(O)cc2)NC(=O)[C@@H](N)CSSC[C@@H](C(=O)N2CCC[C@H]2C(=O)N[C@@H](CCCNC(=N)N)C(=O)NCC(N)=O)NC(=O)[C@H](CC(N)=O)NC(=O)[C@H](CCC(N)=O)NC1=O [zVP] (H-CYIQNCPRG-NH2; disulfide 1-6),11 ± 3 nM,,,,EC50 [2]: 27 ± 9.5 nM; EC50 [3]: 2.79 ± 1.4 nM; EC50 [4]: > 317 nM and 727 nM
C[C@]12N[C@H](Cc3ccccc31)c1ccccc12 [MK-801],,,,,Social preference deficits ([5]; zebrafish): deficits in social preference induced
carbetocin,,,,,Social deficits following MK-801 exposure ([5]; zebrafish exposed to glutamate antagonist MK-801): rescued social deficits
CC[C@H](C)[C@@H]1NC(=O)[C@H](Cc2ccc(O)cc2)NC(=O)[C@@H](N)CSSC[C@@H](C(=O)N2CCC[C@H]2C(=O)N[C@H](C(=O)NCC(N)=O)[C@@H](C)CC)NC(=O)[C@H](CC(N)=O)NC(=O)[C@H](CO)NC1=O [zOT] (H-CYISNCPIG-NH2; disulfide 1-6),,3.14 ± 1.1 nM,3.52 ± 0.94 nM,317 ± 79 nM,"EC50 ([1]; HEK293 cells transfected with zebrafish Oxtr, 3H-inositol phosphate accumulation, 10 min pre-incubation, 25 min stimulation, 37 °C, duplicates, table: mean ± SEM, n = 3, read-out: Potency (EC50) at Oxtr): 2.99 ± 0.93 nM"
CCO [ethanol],,,,,"Social preference, developing zebrafish ([5]; high concentrations): inhibit social preference"
CC[C@H](C)[C@@H]1NC(=O)[C@H](Cc2ccc(O)cc2)NC(=O)[C@@H](N)CSSC[C@@H](C(=O)N2CCC[C@H]2C(=O)N[C@@H](CC(C)C)C(=O)NCC(N)=O)NC(=O)[C@H](CC(N)=O)NC(=O)[C@H](CCC(N)=O)NC1=O [OT],20 to 50 nM and 47.9 nM,20 to 50 nM and 34.8 nM,20 to 50 nM and 42.1 nM,20 to 50 nM and 21.5 nM,
